How the values were obtained:
Dd myosin-2 motor domain [1] = biological target: T1, Dd myosin-2 motor domain (Dictyostelium discoideum, UniProt P08799); assay: In vitro motility assay (actin filament sliding); assay type: biochemical
T1 sequence (P08799 1-761 limits assumed): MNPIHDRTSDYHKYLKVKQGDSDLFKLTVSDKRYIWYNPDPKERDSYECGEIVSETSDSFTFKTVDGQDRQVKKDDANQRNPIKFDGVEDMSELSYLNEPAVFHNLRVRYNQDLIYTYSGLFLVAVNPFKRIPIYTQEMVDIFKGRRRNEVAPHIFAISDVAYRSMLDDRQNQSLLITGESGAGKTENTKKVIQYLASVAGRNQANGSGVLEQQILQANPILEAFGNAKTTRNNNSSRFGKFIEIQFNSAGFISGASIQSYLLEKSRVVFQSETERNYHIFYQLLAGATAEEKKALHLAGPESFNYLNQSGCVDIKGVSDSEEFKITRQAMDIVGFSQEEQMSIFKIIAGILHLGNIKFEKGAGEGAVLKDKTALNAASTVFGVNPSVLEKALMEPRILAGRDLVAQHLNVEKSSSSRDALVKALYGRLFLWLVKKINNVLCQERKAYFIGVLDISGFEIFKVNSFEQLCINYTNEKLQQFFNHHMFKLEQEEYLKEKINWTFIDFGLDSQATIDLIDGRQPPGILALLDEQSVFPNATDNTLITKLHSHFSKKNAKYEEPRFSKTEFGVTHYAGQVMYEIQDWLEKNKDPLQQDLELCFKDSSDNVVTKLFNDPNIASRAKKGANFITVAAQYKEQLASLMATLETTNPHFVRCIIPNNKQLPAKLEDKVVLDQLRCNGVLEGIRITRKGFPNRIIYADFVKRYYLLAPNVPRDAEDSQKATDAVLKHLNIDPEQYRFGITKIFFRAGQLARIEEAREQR
Source text: (§1) In addition, the fraction of moving filaments increased from <75% to >95%. […] In initial experiments, we determined the minimal concentration of α-actinin molecules that generate sufficient load to stall the movement of actin filaments for a given surface density of myosin heads. […] Next, we generated in vitro motility flow cells with actin filaments held at stall force. […] The time-dependence of the recovery of motile activity is best fit by a hyperbola. A plateau value of 0.4 μm s^−1 is reached after more than 2 hr (Figure 1G).
(§2) Actin-sliding motility was performed at 20°C using an Olympus IX81 (Olympus, Hamburg, Germany) inverted fluorescence microscope as described previously ([Fujita-Becker et al., 2005]). Average sliding velocities were determined from the Gaussian distribution of automatically tracked actin filaments using DiaTrack 3.01 (Semasopht, Chavannes, Switzerland) and Origin 7.0 (OriginLab Corporation, Northampton, MA). Errors indicate standard deviations.

β-cardiac myosin S1 = biological target: T2, β-cardiac myosin S1 (Sus scrofa, UniProt P79293); assay: Microscale thermophoresis direct binding; parameters: species or system Porcine
T2 construct: S1 and HMM fragments were produced by proteolytic digestion of the full-length proteins with 0.05 mg/ml papain; from tissue; host or cells: porcine cardiac muscle
Source text: (§3) Proteolytic fragments were further purified by actin-coprecipitation.

β-cardiac myosin = β-cardiac myosin (Sus scrofa, UniProt P79293); assay: In vitro motility assay (actin filament sliding); assay type: biochemical, Porcine; parameters: β-Cardiac myosin-2 (S1, full-length); from tissue; host or cells: porcine cardiac muscle
Source text: as §1, §2

[2] = biological target: T3, Dd myosin-5b motor domain (Dictyostelium discoideum, UniProt P54697); assay: Steady-state basal and actin-activated Mg2+-ATPase (NADH-coupled assay); assay type: biochemical
T3 construct: Dd myosin-5b motor domain; His tag; made in house; host or cells: Dictyostelium discoideum AX3-ORF+ cells
T3 sequence (P54697 1-821 limits assumed): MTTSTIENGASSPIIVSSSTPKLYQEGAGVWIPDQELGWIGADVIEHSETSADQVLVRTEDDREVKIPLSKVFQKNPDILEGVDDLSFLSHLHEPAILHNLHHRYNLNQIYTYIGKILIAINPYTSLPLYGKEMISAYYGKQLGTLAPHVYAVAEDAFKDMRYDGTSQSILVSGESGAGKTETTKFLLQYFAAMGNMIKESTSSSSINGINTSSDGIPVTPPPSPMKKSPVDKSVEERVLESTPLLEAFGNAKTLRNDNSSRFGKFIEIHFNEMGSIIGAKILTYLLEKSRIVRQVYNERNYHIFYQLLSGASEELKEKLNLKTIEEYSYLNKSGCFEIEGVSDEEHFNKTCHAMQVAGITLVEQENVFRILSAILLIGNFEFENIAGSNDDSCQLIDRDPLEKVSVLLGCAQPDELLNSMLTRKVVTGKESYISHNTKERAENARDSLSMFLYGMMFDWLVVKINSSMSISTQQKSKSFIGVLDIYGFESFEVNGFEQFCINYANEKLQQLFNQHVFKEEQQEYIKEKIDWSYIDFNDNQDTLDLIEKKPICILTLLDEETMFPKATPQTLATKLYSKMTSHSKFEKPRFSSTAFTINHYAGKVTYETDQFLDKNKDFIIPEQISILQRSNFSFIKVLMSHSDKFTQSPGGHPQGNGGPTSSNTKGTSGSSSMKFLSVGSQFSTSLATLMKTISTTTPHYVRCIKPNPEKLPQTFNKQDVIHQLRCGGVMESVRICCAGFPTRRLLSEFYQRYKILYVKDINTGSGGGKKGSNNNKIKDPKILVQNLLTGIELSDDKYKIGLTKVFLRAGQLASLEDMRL
Procedure: as §3
(§4) Basal and actin-activated Mg^2+-ATPase activities were measured using the NADH-coupled assay described previously ([Furch et al., 1998]) adapted for higher throughput screens for a temperature controlled plate reader (Multiscan FC, Thermo Scientific, Waltham, MA) at 25°C. EMD 57033 was added to the reaction mixture in the absence of nucleotide and incubated before the reaction was started by the addition of ATP. Control measurements were carried out in the absence of drug, as well as in the presence of according concentrations of the non-binding (−)-enantiomer EMD 57439 to account for possible absorption effects. […] Data points are mean values from 3 to 5 independent experiments. Error bars indicate standard deviations.

Dd myosin-2 motor domain [3] = biological target: T1, Dd myosin-2 motor domain; assay: as above; assay type: biochemical
Procedure: as §3, §4

T2 sequence (P79293 1-843 limits assumed): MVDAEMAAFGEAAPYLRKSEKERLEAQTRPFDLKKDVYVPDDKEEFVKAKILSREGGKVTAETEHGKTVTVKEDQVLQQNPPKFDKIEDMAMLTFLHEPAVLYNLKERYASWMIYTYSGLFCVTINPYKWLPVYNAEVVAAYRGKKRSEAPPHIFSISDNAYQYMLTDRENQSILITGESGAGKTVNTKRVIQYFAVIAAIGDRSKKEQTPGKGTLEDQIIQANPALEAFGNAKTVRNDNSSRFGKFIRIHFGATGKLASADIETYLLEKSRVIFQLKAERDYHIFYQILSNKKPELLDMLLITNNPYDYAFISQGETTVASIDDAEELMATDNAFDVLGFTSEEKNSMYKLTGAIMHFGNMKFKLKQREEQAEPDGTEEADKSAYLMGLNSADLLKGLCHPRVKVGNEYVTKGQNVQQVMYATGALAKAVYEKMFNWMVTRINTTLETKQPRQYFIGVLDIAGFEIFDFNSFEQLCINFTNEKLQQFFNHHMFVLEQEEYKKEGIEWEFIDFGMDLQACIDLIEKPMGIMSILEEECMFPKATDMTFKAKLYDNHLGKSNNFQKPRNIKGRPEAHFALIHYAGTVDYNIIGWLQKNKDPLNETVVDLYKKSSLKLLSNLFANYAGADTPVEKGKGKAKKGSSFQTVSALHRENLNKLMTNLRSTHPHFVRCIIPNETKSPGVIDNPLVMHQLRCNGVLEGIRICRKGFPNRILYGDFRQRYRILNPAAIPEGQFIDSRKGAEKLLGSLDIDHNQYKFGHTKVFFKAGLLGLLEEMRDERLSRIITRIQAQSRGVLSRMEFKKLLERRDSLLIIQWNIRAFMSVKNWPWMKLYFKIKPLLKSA
Sequence of β-cardiac myosin (P79293 whole entry): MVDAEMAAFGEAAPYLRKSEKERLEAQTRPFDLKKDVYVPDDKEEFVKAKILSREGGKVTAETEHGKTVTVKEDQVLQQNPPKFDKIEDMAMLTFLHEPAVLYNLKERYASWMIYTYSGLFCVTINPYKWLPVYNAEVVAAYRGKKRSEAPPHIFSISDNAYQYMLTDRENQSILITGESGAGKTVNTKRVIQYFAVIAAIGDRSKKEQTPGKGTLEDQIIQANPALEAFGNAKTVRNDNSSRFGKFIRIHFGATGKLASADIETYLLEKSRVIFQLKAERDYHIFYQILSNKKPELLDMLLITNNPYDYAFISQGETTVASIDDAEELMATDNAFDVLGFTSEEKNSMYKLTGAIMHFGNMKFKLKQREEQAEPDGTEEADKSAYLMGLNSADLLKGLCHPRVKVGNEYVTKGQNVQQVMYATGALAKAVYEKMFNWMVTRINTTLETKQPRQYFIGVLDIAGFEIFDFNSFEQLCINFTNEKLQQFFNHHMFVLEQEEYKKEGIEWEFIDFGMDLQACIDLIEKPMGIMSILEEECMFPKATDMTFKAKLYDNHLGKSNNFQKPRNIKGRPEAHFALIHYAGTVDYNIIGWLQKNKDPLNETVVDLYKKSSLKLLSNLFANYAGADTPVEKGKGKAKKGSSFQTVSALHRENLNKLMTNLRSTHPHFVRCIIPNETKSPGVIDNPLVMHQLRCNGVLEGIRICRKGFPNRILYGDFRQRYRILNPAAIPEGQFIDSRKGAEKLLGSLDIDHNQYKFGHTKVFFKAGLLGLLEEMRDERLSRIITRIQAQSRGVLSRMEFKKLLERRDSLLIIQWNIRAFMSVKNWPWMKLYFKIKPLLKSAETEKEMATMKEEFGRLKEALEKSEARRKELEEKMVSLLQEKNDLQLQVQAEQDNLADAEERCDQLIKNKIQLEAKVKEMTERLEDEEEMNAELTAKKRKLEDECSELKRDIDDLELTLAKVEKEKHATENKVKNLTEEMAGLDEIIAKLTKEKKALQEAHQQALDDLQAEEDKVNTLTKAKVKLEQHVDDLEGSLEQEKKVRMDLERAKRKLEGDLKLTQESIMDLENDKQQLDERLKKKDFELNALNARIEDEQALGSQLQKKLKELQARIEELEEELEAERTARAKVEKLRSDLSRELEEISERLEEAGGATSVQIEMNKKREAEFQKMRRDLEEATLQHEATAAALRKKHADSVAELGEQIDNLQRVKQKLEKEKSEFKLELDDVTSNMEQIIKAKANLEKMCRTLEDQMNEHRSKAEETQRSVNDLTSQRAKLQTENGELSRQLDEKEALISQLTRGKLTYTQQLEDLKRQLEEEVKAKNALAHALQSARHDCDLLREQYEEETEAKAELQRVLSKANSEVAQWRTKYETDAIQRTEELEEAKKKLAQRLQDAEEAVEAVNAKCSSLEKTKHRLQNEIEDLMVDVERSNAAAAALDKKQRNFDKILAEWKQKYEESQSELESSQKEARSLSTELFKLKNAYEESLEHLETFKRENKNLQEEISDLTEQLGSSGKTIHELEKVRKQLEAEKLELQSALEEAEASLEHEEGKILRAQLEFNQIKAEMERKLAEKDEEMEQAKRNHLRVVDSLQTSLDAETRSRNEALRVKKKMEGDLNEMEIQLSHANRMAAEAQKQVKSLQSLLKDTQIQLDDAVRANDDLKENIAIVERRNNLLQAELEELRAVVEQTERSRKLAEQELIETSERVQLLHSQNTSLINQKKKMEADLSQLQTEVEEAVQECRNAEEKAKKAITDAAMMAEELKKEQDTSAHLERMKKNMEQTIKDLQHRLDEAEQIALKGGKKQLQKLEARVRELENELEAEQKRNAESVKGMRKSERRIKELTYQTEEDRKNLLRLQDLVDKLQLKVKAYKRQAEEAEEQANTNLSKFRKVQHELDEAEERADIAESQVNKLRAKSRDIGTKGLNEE

COc1ccc(C(=O)N2CCCc3cc(C4=NNC(=O)SC4C)ccc32)cc1OC (centres unmarked) [EMD 57033]
Increase of actin filament sliding velocity (Dd myosin-2 motor domain [1]; 100 µM EMD 57033): 1.6 fold | Average sliding velocity of actin filaments (Dd myosin-2 motor domain [1]; in presence of 100 µM EMD 57033): 1.35 ± 0.2 µm s^−1 | Binding stoichiometry (β-cardiac myosin S1): one molecule of EMD 57033 per myosin head | Kd (β-cardiac myosin S1; fluorescently labeled β-cardiac myosin S1, 100 nM, fit to Hill equation, read-out: Binding affinity (MST), KD): 7.3 µM | Increase of actin filament sliding velocity (β-cardiac myosin): 1.8 fold | Fraction of moving filaments (β-cardiac myosin; in presence of EMD 57033): > 95% | AC50 [2]: 35.4 µM | Activation potency relative to β-cardiac myosin (weaker) [2]: fivefold | Normalized maximal ATPase activation (basal) [2]: 1.4 | Normalized maximal ATPase activation (with 30 µM actin) ([2]; 30 µM actin): 1.6 | AC50 (Dd myosin-2 motor domain [3]): 25.8 µM | Normalized maximal ATPase activation (basal) (Dd myosin-2 motor domain [3]): 1.4 | Normalized maximal ATPase activation (with 30 µM actin) (Dd myosin-2 motor domain [3]; 30 µM actin): 2.8 | Basal ATP turnover relative to that expected for 100% active protein (Dd myosin-2 motor domain [3]; saturating EMD 57033): 1.4 fold

Reference: publication PMC3920478, “Small molecule-mediated refolding and activation of myosin motor function” (eLife, 2014)
